Results on twelve molecules are retold here after ChEMBL document CHEMBL1201862, “PubChem BioAssay data set” (2004).

Assay [1] addresses Glucose-6-phosphate 1-dehydrogenase (Homo sapiens, UniProt P11413). The assay is described as follows: inhibition of Homo sapiens G6PD, dose series – biochemical, fluorescence, selectivity assay for P. falciparum G6PD inhibitor project, dose response (AID 504792). The assay is classed as functional.
In assay [2] the target is Induced myeloid leukemia cell differentiation protein Mcl-1 (Homo sapiens, UniProt Q07820). It is filed as functional.
Sequence of Induced myeloid leukemia cell differentiation protein Mcl-1 (Q07820 whole entry): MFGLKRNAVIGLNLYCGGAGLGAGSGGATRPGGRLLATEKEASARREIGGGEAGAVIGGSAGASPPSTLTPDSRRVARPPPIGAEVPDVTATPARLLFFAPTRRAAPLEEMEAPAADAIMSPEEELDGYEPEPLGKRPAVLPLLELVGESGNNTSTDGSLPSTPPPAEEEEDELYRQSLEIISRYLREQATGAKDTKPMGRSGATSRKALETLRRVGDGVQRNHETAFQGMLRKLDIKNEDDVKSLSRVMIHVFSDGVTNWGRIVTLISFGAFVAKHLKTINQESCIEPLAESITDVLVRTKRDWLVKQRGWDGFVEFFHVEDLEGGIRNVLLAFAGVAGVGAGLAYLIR
Assay [3] has as its target Dual specificity protein kinase CLK1 (Homo sapiens, UniProt P49759). The assay is described as follows: inhibition of human CLK1 activity – biochemical, cherry-picked samples, selectivity assay for Dyrk1A inhibitor project, dose response (AID 588811).
Assay [4] in a line: Trypanosoma cruzi growth suppression in host cells – NIH3T3 host cells, beta-gal luminescence, confirmation (AID 2044).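 Note: intracellular parasites grown in NIH/3T3 mouse fibroblasts as host cells; luminescent beta-galactosidase reporter signal from transgenic T. cruzi replicating inside host cells; inhibitors lower the luminescence signal.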 The assay is classed as functional, cell-based.
A short description of assay [5]: NIH3T3 cell viability loss – ATP luminescence, mouse fibroblasts, counter-screen, dose response (AID 2010).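 Note: cells exposed to compound for about 90 hours before reading.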 The assay is classed as functional, cell-based.
Assay [6] concerns the target Cytochrome P450 2C19 (Homo sapiens, UniProt P33261). Nature of the assay: Cytochrome panel assay with activity outcomes. Panel member name: p450-cyp2c19 Compounds with AC50 equal or less than 10 uM are considered active. It is filed as functional. Conditions: read-out: AC50.
In assay [7] the target is T1, Cytochrome P450 1A2 (Homo sapiens, UniProt P05177).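 Note: PubChem cytochrome P450 panel assay, CYP1A2 panel member.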
T1 sequence (P05177 whole entry): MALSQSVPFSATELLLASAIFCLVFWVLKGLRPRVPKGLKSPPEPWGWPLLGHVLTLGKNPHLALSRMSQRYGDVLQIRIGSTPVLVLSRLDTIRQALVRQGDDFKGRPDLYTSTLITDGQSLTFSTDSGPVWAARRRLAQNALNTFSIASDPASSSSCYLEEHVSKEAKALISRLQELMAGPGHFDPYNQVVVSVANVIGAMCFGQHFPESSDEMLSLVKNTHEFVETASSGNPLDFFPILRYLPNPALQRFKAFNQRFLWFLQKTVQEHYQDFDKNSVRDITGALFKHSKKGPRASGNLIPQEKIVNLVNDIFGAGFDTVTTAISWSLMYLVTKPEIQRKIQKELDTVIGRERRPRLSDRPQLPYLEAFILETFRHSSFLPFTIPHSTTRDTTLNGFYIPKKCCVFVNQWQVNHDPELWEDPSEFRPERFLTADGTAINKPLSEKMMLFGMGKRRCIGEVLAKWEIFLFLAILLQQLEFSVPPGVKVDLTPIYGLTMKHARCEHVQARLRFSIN

For assay [8], the target named is Prothrombin (Homo sapiens, UniProt P00734). The assay is described as follows: Thrombin 1536 HTS Dose Response Confirmation. [Related pubchem assays: 1046 (Thrombin 1536 HTS; hits were confirmed in this assay)]. The assay is classed as functional.
Assay [9] in a line: MIN6 cell viability loss – mouse insulinoma, cytotoxicity control, dose response (AID 2122).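 Note: confirmatory high-throughput counterscreen run to flag cytotoxic compounds.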 It is filed as functional.
Assay [10] is described as follows: decrease of insulin promoter-GFP reporter – imaging, high-content screening, mouse beta cells (AID 1628). The assay is classed as functional. Conditions: MIN6.
Assay [11] concerns the target Cytochrome P450 2C9 (Homo sapiens, UniProt P11712).
For assay [12], the target named is Cytochrome P450 3A4 (Homo sapiens, UniProt P08684).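 Note: CYP3A4 tested as one member of a cytochrome P450 panel screen.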
Sequence of Cytochrome P450 3A4 (P08684 whole entry): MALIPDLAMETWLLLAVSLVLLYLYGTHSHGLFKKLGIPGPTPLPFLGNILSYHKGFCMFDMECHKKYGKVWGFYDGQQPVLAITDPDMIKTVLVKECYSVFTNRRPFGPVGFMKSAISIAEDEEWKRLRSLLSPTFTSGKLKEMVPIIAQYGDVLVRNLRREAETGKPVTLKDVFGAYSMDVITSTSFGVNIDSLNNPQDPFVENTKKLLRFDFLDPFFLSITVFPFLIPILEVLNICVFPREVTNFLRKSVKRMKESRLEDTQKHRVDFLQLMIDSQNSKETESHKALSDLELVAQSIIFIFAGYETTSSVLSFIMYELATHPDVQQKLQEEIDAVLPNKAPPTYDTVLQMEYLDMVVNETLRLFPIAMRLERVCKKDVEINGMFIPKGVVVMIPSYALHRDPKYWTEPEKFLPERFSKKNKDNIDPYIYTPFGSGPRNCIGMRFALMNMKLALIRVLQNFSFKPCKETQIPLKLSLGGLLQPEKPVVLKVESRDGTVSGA
The nature of assay [13]: microbe, parasite or virus in culture. The assay is classed as functional. The note with it: Mycobacterium tuberculosis.
Assay [14] has as its target Ras and Rab interactor 1/Tyrosine-protein kinase ABL1 (Homo sapiens, UniProt P00519+Q13671). It is filed as functional.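 Note: biochemical TR-FRET dose-response test measuring inhibition of binding between Rin1 and Abl proteins.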
The nature of assay [15]: viability of PTEN-deleted HCT116 cells – cell-based, HCT116 PTEN knockout, dose response (AID 1047).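 Note: HCT116 colon tumor cells with PTEN knocked out; cells exposed to compound for 60 hours before readout; potency for loss of cell viability measured by luminescence.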 The assay is classed as functional.
Assay [16] can be described thus: viability of HCT116 lacking mutant beta-catenin – cell-based, human colon tumor, dose response (AID 1045).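 Note: HCT116 colon tumor cells with beta catenin knocked out; cells exposed to compound for 60 hours.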 The assay is classed as functional.
Assay [17] addresses T2, Protein skinhead-1 (Caenorhabditis elegans, UniProt P34707).
T2 sequence (P34707 whole entry): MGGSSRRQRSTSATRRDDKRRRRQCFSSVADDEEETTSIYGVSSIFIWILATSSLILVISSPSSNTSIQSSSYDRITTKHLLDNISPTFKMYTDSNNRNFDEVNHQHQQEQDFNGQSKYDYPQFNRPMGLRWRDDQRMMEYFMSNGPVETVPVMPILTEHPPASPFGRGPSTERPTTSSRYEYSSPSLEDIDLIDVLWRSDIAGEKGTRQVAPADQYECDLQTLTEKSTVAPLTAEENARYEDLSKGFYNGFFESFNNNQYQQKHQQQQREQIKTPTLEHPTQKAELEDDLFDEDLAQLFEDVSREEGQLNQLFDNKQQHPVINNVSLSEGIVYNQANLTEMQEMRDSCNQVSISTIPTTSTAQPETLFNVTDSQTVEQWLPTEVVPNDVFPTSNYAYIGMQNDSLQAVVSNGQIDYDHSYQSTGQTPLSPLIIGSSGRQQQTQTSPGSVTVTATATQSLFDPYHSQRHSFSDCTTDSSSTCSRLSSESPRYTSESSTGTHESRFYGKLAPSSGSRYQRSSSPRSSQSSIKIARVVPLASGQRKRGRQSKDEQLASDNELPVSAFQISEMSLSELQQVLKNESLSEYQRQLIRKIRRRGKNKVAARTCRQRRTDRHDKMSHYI
It is filed as functional.

The nature of assay [18]: Luminescence Cell-Based Dose Retest to Confirm Inhibitors of Cancer Stem Cells. [Related pubchem assays (depositor defined):AID2717, AID2721]. Conditions: Homo sapiens. It is filed as functional.
The nature of assay [19]: THP-1 cell cytotoxicity, dose response, cytotoxicity control for non-replicating M. tuberculosis project (AID 489025). The assay is classed as functional.
Assay [20] concerns the target FAD-linked sulfhydryl oxidase ALR (Homo sapiens, UniProt P55789). The assay is described as follows: ALR-catalysed DTT oxidation blockers – biochemical, H2O2 detection, luminescence, cherry-pick, dose response (AID 493248).
Assay [21] has as its target T3, Microphthalmia-associated transcription factor (Homo sapiens, UniProt O75030).
T3 sequence (O75030 whole entry): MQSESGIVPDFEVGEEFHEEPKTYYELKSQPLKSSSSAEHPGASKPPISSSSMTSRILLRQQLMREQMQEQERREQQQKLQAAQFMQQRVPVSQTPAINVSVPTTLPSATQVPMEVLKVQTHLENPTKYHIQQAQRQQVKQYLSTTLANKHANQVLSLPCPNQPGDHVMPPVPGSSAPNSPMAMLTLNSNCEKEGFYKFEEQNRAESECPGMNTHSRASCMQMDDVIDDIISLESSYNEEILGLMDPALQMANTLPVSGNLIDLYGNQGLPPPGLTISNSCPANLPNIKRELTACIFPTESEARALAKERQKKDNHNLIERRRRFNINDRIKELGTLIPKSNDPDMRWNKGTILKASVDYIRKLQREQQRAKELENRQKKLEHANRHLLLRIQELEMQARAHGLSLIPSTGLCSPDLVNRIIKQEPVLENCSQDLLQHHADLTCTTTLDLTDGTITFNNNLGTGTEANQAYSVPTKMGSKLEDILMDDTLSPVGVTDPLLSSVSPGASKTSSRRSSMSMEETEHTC
Nature of the assay: reducers of TRPM1 reporter luminescence, concentration series – cell-based, SK-MEL-5, cherry-picked, set 3, MITF inhibitor project, dose response (AID 493073).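 Note: SK-MEL-5 melanoma cells with luciferase driven by the MITF target TRPM1 promoter.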 It is filed as functional.

Assay [22] is described as follows: cells. It is filed as functional.
In assay [23] the test system is A-375. The assay is described as follows: proliferation inhibition in MITF-low A375 cells – cell-based, cherry-pick samples, set 2, counter-screen for MITF modulator project, dose response (AID 540335). The note with it: Homo sapiens. The assay is classed as functional.
In assay [24] the target is T4, Histone-lysine N-methyltransferase NSD2 (Homo sapiens, UniProt O96028).
T4 sequence (O96028 whole entry): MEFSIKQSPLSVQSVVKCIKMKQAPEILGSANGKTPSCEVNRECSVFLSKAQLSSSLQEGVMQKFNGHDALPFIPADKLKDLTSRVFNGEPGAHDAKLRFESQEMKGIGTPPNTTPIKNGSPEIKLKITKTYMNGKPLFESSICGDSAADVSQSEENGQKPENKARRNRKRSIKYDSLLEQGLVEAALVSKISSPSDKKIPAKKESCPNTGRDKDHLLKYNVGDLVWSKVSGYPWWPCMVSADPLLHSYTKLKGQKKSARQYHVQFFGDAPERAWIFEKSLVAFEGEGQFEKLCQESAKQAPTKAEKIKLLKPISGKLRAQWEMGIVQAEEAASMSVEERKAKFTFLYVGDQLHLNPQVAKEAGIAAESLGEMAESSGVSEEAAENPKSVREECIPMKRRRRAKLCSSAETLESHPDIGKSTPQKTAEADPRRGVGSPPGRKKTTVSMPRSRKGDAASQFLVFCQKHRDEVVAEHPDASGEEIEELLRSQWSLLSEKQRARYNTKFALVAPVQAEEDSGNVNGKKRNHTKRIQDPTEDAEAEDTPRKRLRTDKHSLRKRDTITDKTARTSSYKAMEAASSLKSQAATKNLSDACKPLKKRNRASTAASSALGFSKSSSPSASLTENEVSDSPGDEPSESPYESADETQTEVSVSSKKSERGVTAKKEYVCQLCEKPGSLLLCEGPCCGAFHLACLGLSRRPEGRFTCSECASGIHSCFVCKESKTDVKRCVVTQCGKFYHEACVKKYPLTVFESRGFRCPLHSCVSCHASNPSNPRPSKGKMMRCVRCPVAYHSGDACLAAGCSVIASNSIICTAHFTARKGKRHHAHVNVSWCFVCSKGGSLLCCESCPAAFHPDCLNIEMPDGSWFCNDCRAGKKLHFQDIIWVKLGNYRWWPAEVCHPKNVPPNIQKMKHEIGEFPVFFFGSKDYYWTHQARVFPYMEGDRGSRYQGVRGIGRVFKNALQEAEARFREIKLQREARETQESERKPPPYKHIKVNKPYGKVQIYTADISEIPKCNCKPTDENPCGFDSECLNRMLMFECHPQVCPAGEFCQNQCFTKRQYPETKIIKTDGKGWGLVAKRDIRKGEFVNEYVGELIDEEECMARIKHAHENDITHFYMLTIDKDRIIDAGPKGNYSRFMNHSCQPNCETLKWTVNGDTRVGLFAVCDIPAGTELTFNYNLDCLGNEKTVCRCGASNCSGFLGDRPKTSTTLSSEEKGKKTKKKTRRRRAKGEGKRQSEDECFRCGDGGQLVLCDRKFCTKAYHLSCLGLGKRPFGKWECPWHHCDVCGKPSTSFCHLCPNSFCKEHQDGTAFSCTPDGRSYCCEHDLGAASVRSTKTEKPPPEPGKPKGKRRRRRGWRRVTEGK
The assay is classed as biochemical.

Assay [25] deals with Vero. Nature of the assay: cells. It is filed as functional. The note with it: Chlorocebus sabaeus.
Assay [26] relates to Vero. Nature of the assay: cells. The assay is classed as functional, cell-based. The note with it: Chlorocebus sabaeus.
For assay [27], the target named is T5, Estrogen receptor beta (Homo sapiens, UniProt Q92731). Nature of the assay: blockers of SRC-3 recruitment to ERβ – biochemical, ELISA, streptavidin-HRP readout, orthogonal assay, confirmation (AID 1060).
T5 sequence (Q92731 whole entry): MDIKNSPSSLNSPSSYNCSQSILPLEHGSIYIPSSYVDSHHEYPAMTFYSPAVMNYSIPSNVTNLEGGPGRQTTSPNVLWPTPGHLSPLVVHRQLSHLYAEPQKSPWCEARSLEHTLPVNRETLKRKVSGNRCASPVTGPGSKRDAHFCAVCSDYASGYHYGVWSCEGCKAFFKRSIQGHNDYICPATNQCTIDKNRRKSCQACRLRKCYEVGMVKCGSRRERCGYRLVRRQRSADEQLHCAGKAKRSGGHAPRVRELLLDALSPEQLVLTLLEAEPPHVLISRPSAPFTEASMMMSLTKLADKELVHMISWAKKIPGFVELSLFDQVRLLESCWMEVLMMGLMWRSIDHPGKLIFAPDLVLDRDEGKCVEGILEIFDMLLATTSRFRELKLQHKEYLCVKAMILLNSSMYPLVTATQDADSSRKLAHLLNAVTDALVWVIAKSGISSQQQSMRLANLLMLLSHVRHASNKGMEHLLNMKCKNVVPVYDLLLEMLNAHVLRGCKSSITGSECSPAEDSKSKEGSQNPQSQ
Assay [28] concerns the target T5, Estrogen receptor beta.

The source made the active and inactive calls. A value given as a limit tells only on which side of the number the result lay.

Sequence of Dual specificity protein kinase CLK1 (P49759 whole entry): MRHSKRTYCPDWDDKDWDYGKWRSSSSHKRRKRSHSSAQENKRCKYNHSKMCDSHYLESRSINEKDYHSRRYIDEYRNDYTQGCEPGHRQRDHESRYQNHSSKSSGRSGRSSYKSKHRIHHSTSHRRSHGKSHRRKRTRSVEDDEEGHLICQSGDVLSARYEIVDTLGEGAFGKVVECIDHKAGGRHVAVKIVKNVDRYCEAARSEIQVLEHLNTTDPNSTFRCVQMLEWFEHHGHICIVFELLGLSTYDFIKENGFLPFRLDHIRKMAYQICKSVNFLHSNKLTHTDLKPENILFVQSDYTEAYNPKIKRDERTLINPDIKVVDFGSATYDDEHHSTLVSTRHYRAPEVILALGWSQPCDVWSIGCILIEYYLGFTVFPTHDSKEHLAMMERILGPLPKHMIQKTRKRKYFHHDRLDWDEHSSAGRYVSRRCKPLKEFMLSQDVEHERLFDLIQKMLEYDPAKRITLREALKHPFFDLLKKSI
Sequence of Ras and Rab interactor 1/Tyrosine-protein kinase ABL1 (P00519 whole entry): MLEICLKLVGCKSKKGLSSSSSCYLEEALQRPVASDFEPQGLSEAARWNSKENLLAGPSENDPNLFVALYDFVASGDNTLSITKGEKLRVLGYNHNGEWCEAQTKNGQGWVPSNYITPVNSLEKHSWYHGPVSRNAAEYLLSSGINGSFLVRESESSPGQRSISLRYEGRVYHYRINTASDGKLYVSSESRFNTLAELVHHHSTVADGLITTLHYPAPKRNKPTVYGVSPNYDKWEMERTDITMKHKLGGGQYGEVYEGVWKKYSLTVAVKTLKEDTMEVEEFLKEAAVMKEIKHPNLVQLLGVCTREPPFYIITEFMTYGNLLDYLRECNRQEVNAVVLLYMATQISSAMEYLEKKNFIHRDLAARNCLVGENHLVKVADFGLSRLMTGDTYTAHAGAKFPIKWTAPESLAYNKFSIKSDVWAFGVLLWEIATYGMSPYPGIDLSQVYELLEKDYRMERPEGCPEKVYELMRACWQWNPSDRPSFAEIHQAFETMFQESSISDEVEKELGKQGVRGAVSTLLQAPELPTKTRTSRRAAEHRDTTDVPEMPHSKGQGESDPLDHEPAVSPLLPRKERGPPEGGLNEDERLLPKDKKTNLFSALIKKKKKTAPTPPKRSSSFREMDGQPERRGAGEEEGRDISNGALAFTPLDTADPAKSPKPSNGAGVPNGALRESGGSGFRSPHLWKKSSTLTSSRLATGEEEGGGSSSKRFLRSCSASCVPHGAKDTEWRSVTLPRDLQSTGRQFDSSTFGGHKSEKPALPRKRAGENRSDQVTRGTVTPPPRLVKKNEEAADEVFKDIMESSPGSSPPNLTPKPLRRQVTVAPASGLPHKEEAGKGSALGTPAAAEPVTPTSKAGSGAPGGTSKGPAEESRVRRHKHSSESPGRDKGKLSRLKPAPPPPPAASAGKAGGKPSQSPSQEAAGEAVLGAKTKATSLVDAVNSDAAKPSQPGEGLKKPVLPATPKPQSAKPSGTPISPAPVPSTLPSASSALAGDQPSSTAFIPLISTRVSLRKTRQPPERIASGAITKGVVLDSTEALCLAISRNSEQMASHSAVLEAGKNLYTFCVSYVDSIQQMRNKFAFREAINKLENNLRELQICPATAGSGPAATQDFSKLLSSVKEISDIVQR
Sequence of Ras and Rab interactor 1/Tyrosine-protein kinase ABL1 (Q13671 whole entry): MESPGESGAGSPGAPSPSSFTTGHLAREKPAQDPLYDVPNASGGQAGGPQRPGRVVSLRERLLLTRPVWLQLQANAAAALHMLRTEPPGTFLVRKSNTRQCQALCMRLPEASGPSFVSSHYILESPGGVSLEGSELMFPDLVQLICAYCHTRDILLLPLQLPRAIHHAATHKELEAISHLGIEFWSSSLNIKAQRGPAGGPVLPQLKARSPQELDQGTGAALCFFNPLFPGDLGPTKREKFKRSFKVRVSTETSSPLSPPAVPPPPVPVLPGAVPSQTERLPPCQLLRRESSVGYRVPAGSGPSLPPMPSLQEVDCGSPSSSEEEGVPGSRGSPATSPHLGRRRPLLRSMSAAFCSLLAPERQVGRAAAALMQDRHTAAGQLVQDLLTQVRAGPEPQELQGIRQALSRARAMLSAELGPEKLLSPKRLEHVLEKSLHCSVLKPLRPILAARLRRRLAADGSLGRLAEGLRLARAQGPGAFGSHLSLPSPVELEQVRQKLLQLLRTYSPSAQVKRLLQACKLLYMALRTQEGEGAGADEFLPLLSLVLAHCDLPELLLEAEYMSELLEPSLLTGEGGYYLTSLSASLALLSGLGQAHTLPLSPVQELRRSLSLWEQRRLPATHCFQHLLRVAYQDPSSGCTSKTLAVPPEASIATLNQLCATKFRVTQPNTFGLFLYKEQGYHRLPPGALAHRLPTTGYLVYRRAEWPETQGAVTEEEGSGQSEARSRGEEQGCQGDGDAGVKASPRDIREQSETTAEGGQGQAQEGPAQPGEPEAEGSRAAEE
Sequence of Glucose-6-phosphate 1-dehydrogenase (P11413 whole entry): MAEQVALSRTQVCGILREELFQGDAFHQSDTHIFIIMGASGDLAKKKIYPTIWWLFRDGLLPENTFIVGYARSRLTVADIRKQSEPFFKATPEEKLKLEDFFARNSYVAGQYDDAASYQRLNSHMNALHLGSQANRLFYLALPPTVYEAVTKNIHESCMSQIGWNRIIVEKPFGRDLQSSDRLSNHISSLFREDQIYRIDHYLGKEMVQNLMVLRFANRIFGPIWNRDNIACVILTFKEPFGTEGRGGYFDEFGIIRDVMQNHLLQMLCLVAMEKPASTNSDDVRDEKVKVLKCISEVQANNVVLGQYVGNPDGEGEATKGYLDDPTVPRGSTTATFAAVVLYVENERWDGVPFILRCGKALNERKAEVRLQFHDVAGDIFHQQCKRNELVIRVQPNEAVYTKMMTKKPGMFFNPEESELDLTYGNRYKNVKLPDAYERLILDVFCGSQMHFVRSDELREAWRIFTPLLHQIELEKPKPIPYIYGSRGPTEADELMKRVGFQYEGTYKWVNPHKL
Sequence of Cytochrome P450 2C9 (P11712 whole entry): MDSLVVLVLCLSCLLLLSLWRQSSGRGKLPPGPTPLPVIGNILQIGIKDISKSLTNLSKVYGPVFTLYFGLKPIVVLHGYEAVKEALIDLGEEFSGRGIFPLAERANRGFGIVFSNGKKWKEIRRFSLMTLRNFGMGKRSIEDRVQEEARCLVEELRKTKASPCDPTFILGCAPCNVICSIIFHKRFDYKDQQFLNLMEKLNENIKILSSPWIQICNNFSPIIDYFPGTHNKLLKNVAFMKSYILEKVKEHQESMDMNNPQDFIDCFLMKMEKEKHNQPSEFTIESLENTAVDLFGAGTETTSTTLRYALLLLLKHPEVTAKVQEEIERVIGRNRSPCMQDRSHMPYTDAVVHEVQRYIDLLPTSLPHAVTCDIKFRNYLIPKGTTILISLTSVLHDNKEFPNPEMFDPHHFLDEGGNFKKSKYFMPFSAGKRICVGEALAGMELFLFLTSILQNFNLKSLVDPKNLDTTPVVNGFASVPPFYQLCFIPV
Sequence of FAD-linked sulfhydryl oxidase ALR (P55789 whole entry): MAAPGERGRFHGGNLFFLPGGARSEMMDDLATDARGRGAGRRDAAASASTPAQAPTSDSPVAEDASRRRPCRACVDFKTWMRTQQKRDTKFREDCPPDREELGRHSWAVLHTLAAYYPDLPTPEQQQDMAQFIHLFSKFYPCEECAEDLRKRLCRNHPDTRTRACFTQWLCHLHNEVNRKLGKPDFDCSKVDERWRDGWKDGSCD

For the molecule `Cc1ccc(/C=C2\C(=O)NC(=S)N(c3ccccc3F)C2=O)s1`, the IC50 in assay [1] is > 80 µM (inactive); in assay [2], 4.91 µM (active).

For `Cc1ccccc1OCC(=O)N/N=C/c1ccc(Sc2nc3ccccc3s2)o1`, in assay [1], the IC50 was > 80 µM (inactive).

Regarding `Cc1occc1CNc1ncnc2ccc(-c3ccc4c(c3)OCO4)cc12`, in assay [3], the AC50 is 0.0118 µM (active).

On to `COc1ccc(-c2c[n+]3c4n2CCCCC4=C(c2ccccc2)C3)cc1`, for which the EC50 in [4] is 0.169 µM (active); in [5] it was > 60 µM (not active). In addition, the AC50 was 3.55 µM (inconclusive) in assay [6], 28.2 µM (inconclusive) in assay [7], 0.0316 µM (inconclusive) in [11] and 3.16 µM (inconclusive) in [12]. The IC50 is > 50 µM (not active) in [8], 2.76 µM (active) in assay [9] and > 16 µM (inactive) in [10]. In [13], the CC50 is 28.1 µM (active).

For `COC(=O)c1ccc(CSc2nnc(-c3ccccc3)n2C)o1`, in [14], the IC50 was 14.1 µM (inactive).

Turning to `Cc1ccc(OCCCCn2cnc3ccccc32)c(C)c1`, the values for the EC50 in assay [15] and in [16] were 70.8 µM (active) and 41.2 µM (active), respectively. Also, the IC50 in assay [9] was 1.76 µM (active); in assay [10], 2.29 µM (active); in [17], > 100 µM (inactive).

With `CCCOc1ccc(/C=C/C(=O)N2CCN(C(=O)c3ccco3)CC2)cc1OC`, the IC50 in assay [14] was > 73.5 µM (inactive).

`CCc1ccc(N2C(=O)NC(=O)/C(=C\C=C\c3ccco3)C2=O)cc1`: the AC50 in assay [18] is 1.96 µM (active); in [20], 4.24 µM (active); in assay [21], 7.53 µM (active); in assay [23], 21.6 µM (active); in assay [24], > 20 µM (inactive). Moreover, the CC50 in [19] is > 40 µM (active). Further, the IC50 in assay [22] was 19.6 µM (active).

On to `COc1cc(/C=C/C(=O)c2ccc(NS(=O)(=O)c3ccc(C)cc3)cc2)cc(OC)c1O`, for which, in [25], the CC50 is 14.5 µM (active). In assay [18], the AC50 was 2.27 µM (active). In addition, the IC50 in [26] is > 25 µM (active).

In the case of `CCOC(=O)c1ccc(-c2ccc3ncnc(N(C)Cc4sccc4C)c3c2)o1`, the concentration at half-maximal activity (AC50) in assay [3] is 1.47 µM (active).

In the case of `Clc1ccc(CNc2ccnc(-c3ccc4[nH]ncc4c3)n2)cc1Cl`, the AC50 in [3] was 0.00784 µM (active).

For the molecule `N=c1c(C(=O)NCc2ccco2)cc2c(=O)n3ccccc3nc2n1CCc1ccccc1`, the IC50 in assay [27] was > 50 µM (not active); in assay [9], 12.4 µM (inactive); in assay [10], 0.861 µM (active); in assay [28], > 50 µM (not active).
